Results on 14 compounds are retold here after publication PMC10492782, “Exploiting the aggregation propensity of beta-lactamases to design inhibitors that induce enzyme misfolding” (Nature Communications, 2023).

Converted amounts (≈) assume the structure as drawn. Where two headings read alike, the source gives them in different places. Residues, ends and D or L forms follow the SMILES beside them.

Experiment [1] deals with E. coli strain UZ_TEM104. In words: microbe, parasite or virus in culture. The experiment is classed as cell-based, Escherichia coli.
For experiment [2], the system named is E. coli strain UZ_TEM104. The following applies: broth microdilution, MHB, overnight 37 °C, peptide alone. From the text:
Pept-Ins consist of a tandem repeat of the APR, each instance flanked by charged amino acids for solubility and separated by a short peptide linker[20],[21],[24] (Fig. 3A). Previous work has shown that good bacterial uptake can be achieved using one positively charged arginine residue on the N-terminal side of each APR in the tandem and two arginine residues on the C-terminal side[20],[21]. […] As before, we employed a single Pro residue as a linker between the APRs and focused on an APR length of seven, extending shorter APRs to this length by incorporating flanking amino acids unless they were obvious aggregation breakers (Arg, Lys, Asp, Glu or Pro, see Table 1).
Determination of MIC values was performed using the broth microdilution method according to the EUCAST guideline, which was performed in 96-well polystyrene flat-bottom microtiter plates (BD Biosciences). Briefly, a single colony was inoculated into 5 mL Difco™ Mueller–Hinton Broth (BD Biosciences Ref 275730) and grown to the end-exponential growth phase in a shaking incubator at 37 °C. Cultures were subsequently diluted to a MacFarland (0.5 optical density) to reach 10^6 CFU/mL in fresh MHB medium. 50 µl of different concentrations of peptides ranging from 128 to 2 µg/mL were serially diluted to the sterile 96-well plate in MHB. 50 µL of the diluted bacteria in MHB were next pipetted into 96-well plates to reach the final volume of 100 µL. The bacteria grown with the maximum concentration of carrier and medium were considered positive and negative controls, respectively. The plates were statically incubated overnight at 37 °C to allow bacterial growth. OD was measured at 590 nm using a multipurpose ultraviolet–visible plate reader, and the absorbance of the bacterial growth was measured using an absorbance reader.
On the technique in general: In broth dilution the organism is exposed to a series of concentrations in liquid medium.

The next experiment concerns the target TEM-1 (Escherichia coli, UniProt P62593). The class given is biochemical, E. coli. The arrangement: His-tag (N); TEV cleavage site (N); made in house; host or cells: E. coli BL21 (DE3). Conditions: static light scattering during temperature ramp, inhibitor titration.
The next experiment relates to E. coli UZ_TEM104. In words: FACS with pFTAA (aggregation) and propidium iodide (cell death). The class given is cell-based, Escherichia coli. Conditions: 4 h; penicillin G 400 μg/mL and/or TEM3.2 50 μg/mL.
In the next experiment the test system is E. coli NDM-5b. Conditions: for synergy with penicillin (in words): checkerboard, strain containing NDM5b; for FICi values: E. coli NDM-5b. An excerpt: (§1) As we wondered about the generality of our peptide design approach, we set out to design a peptide to inactivate a structurally unrelated beta-lactamase. To this end, we turned to the Ambler class B beta-lactamase NDM-1 that confers resistance to many beta-lactam antibiotics, including carbapenems, and strains carrying this enzyme were soon dubbed ‘superbugs’ that are only partially sensitive to colistin and tigecycline. This enzyme was first isolated from a patient in 2008[41]. By 2010 it could be detected in clinical isolates throughout the UK and India[42], and by 2015, in over 70 countries worldwide.
(§2) For the analysis of synergy between the peptides and other antibiotics, a checkerboard assay was performed. Based on the MICs of the selected peptides, a checkerboard assay was designed to define their FICIs (Fractional Inhibitory Concentration Index) in combinations against different clinical isolates[53],[54]. Briefly, a total volume of 100 μL of Mueller–Hinton broth was distributed into each well of the 96-well plates. The first compound (peptide) of the combination was serially diluted vertically (128, 64, 32, 16, 8, 4, 2, 0 μg/mL) while the other drug (Beta-lactam or Kanamycin) was diluted horizontally in a 96-well plate (from 3200 to 3 μg/ mL). The total volume of each microtiter well was inoculated with 100 μL of MHB containing 1 × 10^6 CFU/mL bacteria. The plates were incubated at 37 °C for 24 h under aerobic conditions without shaking. Calculation of the FICI is used to analyze the results of the checkerboard assay by estimating the degree of synergistic effect. FICI is calculated as the sum of the individual fractional inhibitory concentrations (FICs) for each drug (where MIC A and MIC B denote the MIC of each drug alone, and MIC AA+B and MIC BA+B denote the concentrations of A and B in the drug combination). FICI = (MIC AA+B/MIC A) + (MIC BA+B/MIC B). With FICI ≤ 0.5, the combination of antibiotics is considered as a synergistic effect, 0.5 < FICI ≤ 1 indicates additivity, FICI > 1 indicates indifference.

For a further experiment, the system named is E. coli NDM-5a. Conditions: for FICi values: E. coli NDM-5a; for synergy with penicillin (in words): checkerboard, strain containing NDM5a.
Description: as §1, §2

The test system of another experiment is E. coli TEM104. As to the method:
(§3) To quantify the synergy between these four peptides and penicillin G, we performed a so-called checkerboard assay, which allows us to compare the activity of two test compounds co-incubated (here peptide and a beta-lactam antibiotic), to their individual activities in isolation. […] We evaluated the synergy of the peptides with penicillin G in clinical E. coli isolates carrying the TEM (Fig. 3D) or SHV enzymes (Fig. 3E). […] The list of strains included some that harbored only TEM or SHV, but others contained additional Ambler Class A (CTX-M or OXA) or Class B (VIM and NDM) beta-lactamases.
as §2

For the next experiment, the system named is E. coli SHV11. Kind of experiment: Checkerboard assay (FICI). The class given is cell-based, Escherichia coli. Conditions: strain containing SHV-11, FICI below 0.5 = synergy. As to the method: as §3
For the analysis of synergy between the peptides and other antibiotics, a checkerboard assay was performed. Based on the MICs of the selected peptides, a checkerboard assay was designed to define their FICIs (Fractional Inhibitory Concentration Index) in combinations against different clinical isolates[53],[54]. Briefly, a total volume of 100 μL of Mueller–Hinton broth was distributed into each well of the 96-well plates. […] FICI is calculated as the sum of the individual fractional inhibitory concentrations (FICs) for each drug (where MIC A and MIC B denote the MIC of each drug alone, and MIC AA+B and MIC BA+B denote the concentrations of A and B in the drug combination). […]

Setting [3] is: E. coli UZ_TEM104, concentration of additive 50 (mg/mL [sic]).
Setting [4] is: in the presence of additive (peptide or tazobactam) at fixed 50 μg/mL.

TEM-1, sequence (P62593 24-286 limits assumed): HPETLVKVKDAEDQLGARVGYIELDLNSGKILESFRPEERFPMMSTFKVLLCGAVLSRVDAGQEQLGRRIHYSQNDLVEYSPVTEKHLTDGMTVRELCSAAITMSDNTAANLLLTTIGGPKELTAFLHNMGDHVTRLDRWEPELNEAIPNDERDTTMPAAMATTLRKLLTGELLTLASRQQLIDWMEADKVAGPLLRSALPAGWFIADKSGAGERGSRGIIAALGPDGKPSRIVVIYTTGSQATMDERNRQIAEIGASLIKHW
Description for E. coli UZ_TEM104: Fig. 6 Uptake and inclusion body formation upon peptide treatment. Fluorescence-activated cell-sorting (FACS) (A) of E. coli strain UZ_TEM104 mixed 50–50% with the same strain after heat-inactivation. The cells were stained with pFTAA to monitor aggregation and propidium iodide (PI) to monitor cell permeabilization associated with cell death. 10^6 cells were analyzed for the plot. […] B Similar FACS analysis as in A, but with a sample of live bacteria only. […] Note: the horizontal and vertical lines correspond to the gatings used to obtain the quantifications shown in the corners of each image.
Treated bacteria were washed with PBS buffer two times. One microliter of PI (Invitrogen) was added to the bacteria and incubated for 5 min. The bacteria were counted by FACS to reach 40000 events. To correlate the activity of the peptides with cell death, the fluorescence intensity was measured in two channels using the Gallios^TM Flow Cytometer (Beckman Coulter, USA), PI: excitation 536 nm and emission 617 nm, FITC: excitation 490 nm and emission 525 nm. Heated bacteria at 90 °C for 10 min were used as PI-positive control.
The bacterial cultures were washed with PBS, and the number of bacteria was adjusted to 10^8–10^9 cells/mL. […] Then, cells were treated with LCO dyes (pFTAA; Amytacker^TM680 or Amytacker^TM545: final concentration of 0.5 µM; Ebba Biotech, Sweden) for at least 90 min. The absorption, emission, and excitation spectra for each dye were measured based on the standard Ebbabiotec advice (ebbabiotech.com).
Description for TEM-1: Then, we performed a thermal denaturation whilst simultaneously monitoring the intrinsic fluorescence as a measure of the folding status of the molecule (Fig. 1D and Supplementary Fig. 2D) and the static light scattering as a measure of aggregation (Fig. 1E and Supplementary Fig. 2E).
D Heat denaturation of TEM-1 monitored by intrinsic fluorescence plotted as the BaryCentric Mean (BCM) of the fluorescence emission spectrum in the presence (red) and absence (blue) of tazobactam. […] E Temperature-dependent evolution of the Right-Angle Light Scattering (RALS) intensity measured simultaneously with the data in D to monitor protein aggregation. […] F Same data as in E, but showing a dose-titration of the beta-lactamase inhibitor tazobactam.

As for Ac-RAGWFIARRPRAGWFIARR-NH2 [TEM5.0], the values for the MIC penicillin with E. coli strain UZ_TEM104 [1] (setting [3]) and in the experiment with E. coli strain UZ_TEM104 [1] (setting [4]) were 1600 mg/mL and 1.6 mg/mL, respectively. This compound also gave an MIC peptide in the experiment on E. coli strain UZ_TEM104 [2] of 0.1 mg/mL.

Take `CC(=O)N[C@@H](CCCNC(=N)N)C(=O)N[C@@H](Cc1ccccc1)C(=O)N[C@@H](Cc1ccccc1)C(=O)N[C@@H](C)C(=O)N[C@@H](C)C(=O)N[C@@H](Cc1ccccc1)C(=O)N[C@@H](CS)C(=O)N[C@@H](CC(C)C)C(=O)N[C@@H](CCCNC(=N)N)C(=O)N[C@@H](CCCNC(=N)N)C(=O)N1CCC[C@H]1C(=O)N[C@@H](CCCNC(=N)N)C(=O)N[C@@H](Cc1ccccc1)C(=O)N[C@@H](Cc1ccccc1)C(=O)N[C@@H](C)C(=O)N[C@@H](C)C(=O)N[C@@H](Cc1ccccc1)C(=O)N[C@@H](CS)C(=O)N[C@@H](CC(C)C)C(=O)N[C@@H](CCCNC(=N)N)C(=O)N[C@@H](CCCNC(=N)N)C(N)=O` [TEM1.0] (Ac-RFFAAFCLRRPRFFAAFCLRR-NH2): the MIC penicillin in the experiment on E. coli strain UZ_TEM104 [1] (setting [3]) stood at 1600 mg/mL (≈ 594 mM); in the experiment with E. coli strain UZ_TEM104 [1] (setting [4]), 1.6 mg/mL. Besides, the MIC peptide in the experiment on E. coli strain UZ_TEM104 [2] is over 0.1 mg/mL.

With `NC(=O)[C@@H]1CC[C@@H]2CN1C(=O)N2OS(=O)(=O)O` [avibactam], the “effect on aggregation of TEM-1, dose-response (in words)” value (“effect on aggregation” below) at TEM-1 is reported as “reduce the aggregation of the enzyme in a dose-responsive manner”.

As to `CC1(C)S[C@@H]2[C@H](NC(=O)Cc3ccccc3)C(=O)N2[C@H]1C(=O)O` [penicillin G, Benzylpenicillin sodium], in the experiment on E. coli UZ_TEM104, the “shift in pFTAA and PI channels (in words)” value is “no major change in either channel”. Further, the MIC with E. coli strain UZ_TEM104 [1] (Escherichia coli, read-out: MIC penicillin) was 1.6 mg/mL.

As for Ac-RGIIAALGRRPRGIIAALGRR-NH2 [TEM6.0], the MIC penicillin against E. coli strain UZ_TEM104 [1] (setting [3]) amounted to 1600 mg/mL; in the experiment on E. coli strain UZ_TEM104 [1] (setting [4]) it was 1.6 mg/mL. The MIC peptide with E. coli strain UZ_TEM104 [2] is over 0.1 mg/mL.

In the case of Ac-RTAQILNWRRPRTAQILNWRR-NH2 [NDM1-1], the “synergy with penicillin (in words)” value with E. coli NDM-5b and with E. coli NDM-5a was “show synergy” in each case. The FICi values in the experiment on E. coli NDM-5a (Replicate1) is 0.37; in the experiment with E. coli NDM-5a (Replicate2), 0.38; in the experiment with E. coli NDM-5a (Replicate3), 0.21; with E. coli NDM-5a (Replicate4) it was 0.195; in the experiment on E. coli NDM-5a (Replicate5), 0.25; with E. coli TEM104 (TEM104, Replicate1) it was 0.5. For the same compound, the FICi values with E. coli TEM104 (TEM104, Replicate2) is on record as 0.78; with E. coli TEM104 (TEM104, Replicate3), 0.72; in the experiment on E. coli TEM104 (TEM104, Replicate5), 0.75.

For Ac-RSVIIWSLGRRPRSVIIWSLGRR-NH2 [BGAL], the FICi values in the experiment on E. coli NDM-5b (Replicate1) is recorded as 2; with E. coli NDM-5b (Replicate2), 1; in the experiment with E. coli NDM-5b (Replicate3) it was 2; in the experiment on E. coli NDM-5b (Replicate4), 2; in the experiment with E. coli NDM-5b (Replicate5) it was 1.5; in the experiment with E. coli NDM-5a (Replicate1), 2. Moreover, the FICi values with E. coli NDM-5a (Replicate2) was 2; with E. coli NDM-5a (Replicate3) it was 2; with E. coli NDM-5a (Replicate4) it was 1.5; in the experiment on E. coli NDM-5a (Replicate5) it was 2; in the experiment with E. coli TEM104 (TEM104, Replicate1), 1; in the experiment with E. coli TEM104 (TEM104, Replicate2) it was 1. The FICi values turned out to be 1 with E. coli TEM104 (TEM104, Replicate3); 1 in the experiment with E. coli TEM104 (TEM104, Replicate4); 1.5 in the experiment with E. coli TEM104 (TEM104, Replicate5). Also, the “synergy with penicillin (in words)” value with E. coli NDM-5b and with E. coli NDM-5a was “neither showed synergy on any of the strains used” in each case. Besides, the “synergy with penicillin G (in words)” value in the experiment on E. coli SHV11 is “no synergy with penicillin G”. For the same compound, the MIC peptide in the experiment with E. coli strain UZ_TEM104 [2] was over 0.1 mg/mL.

Consider `O=C(O)[C@H]1/C(=C/CO)O[C@@H]2CC(=O)N21` [clavulanate], for which the “effect on aggregation” value on TEM-1 is recorded as “reduce the aggregation of the enzyme in a dose-responsive manner”.

With `O=C(O)C[C@@H]1CC[C@H](NC(=O)Cc2cccs2)B(O)O1` [vaborbactam], at TEM-1, the “effect on aggregation” value is on record as “reduce the aggregation of the enzyme in a dose-responsive manner”.

Take Ac-RLLLTTIGRRPRLLLTTIGRR-NH2 [TEM2.0]: the MIC penicillin came out at 800 mg/mL against E. coli strain UZ_TEM104 [1] (setting [3]) and 0.8 mg/mL in the experiment on E. coli strain UZ_TEM104 [1] (setting [4]). Also, in the experiment with E. coli strain UZ_TEM104 [2], the MIC peptide is over 0.1 mg/mL.

Regarding Ac-RLAAALMLRRPRAQILNWIRR-NH2 [NDM1-2], the “synergy with penicillin (in words)” value in the experiment on E. coli NDM-5b and in the experiment with E. coli NDM-5a was “show synergy” throughout. For the same compound, the FICi values with E. coli NDM-5a (Replicate1) turned out to be 0.375; in the experiment with E. coli NDM-5a (Replicate2), 0.36; in the experiment with E. coli NDM-5a (Replicate3), 0.25; in the experiment on E. coli NDM-5a (Replicate4), 0.159; in the experiment on E. coli NDM-5a (Replicate5) it was 0.25; in the experiment on E. coli TEM104 (TEM104, Replicate1) it was 0.75. Further, the FICi values in the experiment on E. coli TEM104 (TEM104, Replicate2) is recorded as 1; in the experiment on E. coli TEM104 (TEM104, Replicate3) it was 0.5; in the experiment on E. coli TEM104 (TEM104, Replicate4) it was 1; in the experiment on E. coli TEM104 (TEM104, Replicate5) it was 0.72.

As to Ac-RIVVIYTTRRPRIVVIYTTRR-NH2 [TEM7.0], the MIC penicillin with E. coli strain UZ_TEM104 [1] (setting [3]) was 1600 mg/mL; in the experiment with E. coli strain UZ_TEM104 [1] (setting [4]) it was 1.6 mg/mL. In addition, the MIC peptide against E. coli strain UZ_TEM104 [2] is over 0.1 mg/mL.

On to Ac-RLLTLASRRPRLLTLASRR-NH2 [TEM4.0], for which the MIC penicillin in the experiment with E. coli strain UZ_TEM104 [1] (setting [3]) was found to be 1600 mg/mL; in the experiment on E. coli strain UZ_TEM104 [1] (setting [4]) it was 1.6 mg/mL. In addition, the MIC peptide against E. coli strain UZ_TEM104 [2] was 0.1 mg/mL.

Ac-RLTAFLHNRRPRLTAFLHNRR-NH2 [TEM3.0] yielded an MIC peptide in the experiment with E. coli strain UZ_TEM104 [2] of over 0.1 mg/mL.
